Measured values taken from patent publication US20230183216A1, “PYRIDIZIN-3(2H)-ONE DERIVATIVES” (Gilead Sciences, Inc., priority 2021, published 2023).

Tests used:
[1] = test system: STAT1 (phosphorylated at Tyr701) in NCI-H1373 cells; experiment: Phospho-STAT1 (Tyr701) LANCE Ultra TR-FRET Detection Assay; format: cell-based; details: Homo sapiens, 48 hours, induction of pSTAT1, normalized to 10 uM positive control and DMSO, 4-parameter fit, read-out: NH1373 pSTAT1 EC50
Procedure: Phospho-STAT1 (Tyr701 LANCE Ultra TR-FRET Detection Assay
LANCE Ultra phospho-STAT1 (Tyr701) kits available from Perkin Elmer are designed for the detection of phosphorylated STAT1 in cell lysates using a simple, homogeneous LANCE Ultra sandwich assay (Cat. #TRF4028M). This assay is intended for assessing compound induction of endogenous levels of cellular STAT1 (phosphorylated at Tyr701) in NCI-H1373 cells. The NCI-H1373 cells are cultured in RPMI 1640 media containing 10% heat inactivated FBS, GlutaMAX, 1% Penicillin-Streptomycin. An Echo acoustic liquid handler is used to transfer 60 nanoliters of compound dilutions using the Echo Qualified, 384-well polypropylene microplate clear flat bottom source plates into a Greiner (#781080) cell culture microplate. NCI-H1373 cells are seeded into these compound-spotted culture plates at 30,000 cells/well in a 60 uL volume in growth media. The plates are incubated in a 5% CO2 humidified incubator at 37° C. for 48 hours. […] Briefly, 20 μL of supplemented lysis buffer is added to each well and allowed to shake for 1 hour at 400 rpm. Next, 5 ul of remixed antibody solutions (vol/vol) prepared in detection buffer are added to each well and allowed to incubate at room temperature overnight. After spinning the plate down at 300 rpm for […], the plate is read on an EnVision plate reader set up for Eu3+ Cryptate and fluorescence emission is measured at two different wavelengths (665 nm and 620 nm).

PARP7 = biological target: T1, PARP7 (Homo sapiens, UniProt Q7Z3E1); experiment: biochemical;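 further: MSD light signal quantifying PARP7 captured by a plate-immobilized probe, read after 1.5 h equilibration plus 1.5 h with SULFO-TAG anti-GST antibody at room temperature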
T1 sequence (Q7Z3E1 1-657): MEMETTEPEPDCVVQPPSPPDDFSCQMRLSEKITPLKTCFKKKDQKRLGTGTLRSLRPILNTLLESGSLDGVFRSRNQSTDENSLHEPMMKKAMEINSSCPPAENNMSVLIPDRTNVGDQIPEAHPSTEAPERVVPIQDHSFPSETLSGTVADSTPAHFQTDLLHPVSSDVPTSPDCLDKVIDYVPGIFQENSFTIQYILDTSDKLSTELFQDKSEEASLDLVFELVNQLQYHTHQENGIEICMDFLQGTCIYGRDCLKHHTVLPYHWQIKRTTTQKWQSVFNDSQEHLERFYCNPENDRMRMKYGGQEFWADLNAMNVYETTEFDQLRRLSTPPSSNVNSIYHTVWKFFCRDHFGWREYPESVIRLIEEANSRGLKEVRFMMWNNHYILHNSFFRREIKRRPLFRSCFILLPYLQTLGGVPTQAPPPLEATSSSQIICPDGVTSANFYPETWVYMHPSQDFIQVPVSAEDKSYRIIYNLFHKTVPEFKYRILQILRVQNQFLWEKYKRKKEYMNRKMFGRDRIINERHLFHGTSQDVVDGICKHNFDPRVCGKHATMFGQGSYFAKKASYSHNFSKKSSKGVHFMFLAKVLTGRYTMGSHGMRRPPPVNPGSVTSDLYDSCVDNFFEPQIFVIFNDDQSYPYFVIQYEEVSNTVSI

IC50 (PARP7) [nM]	Compound	EC50 [1] [nM]
0.233	CN(CCCC(=O)N1CCN(c2ncc(C(F)(F)F)cn2)CC1)c1cc(C(F)(F)F)c(=O)[nH]n1 [Example 32, 6-(methyl(4-oxo-4-(4-(5-(trifluoromethyl)pyrimidin-2-yl)piperazin-1-yl)butyl)amino)-4-(trifluoromethyl)pyridazin-3(2H)-one]	75.6
2.92	O=C(CC[C@H]1CCCCN1c1cc(C(F)(F)F)c(=O)[nH]n1)N1CCN(c2ncc(C(F)(F)F)cn2)CC1 [Example 33, (R)-6-(2-(3-oxo-3-(4-(5-(trifluoromethyl)pyrimidin-2-yl)piperazin-1-yl)propyl)piperidin-1-yl)-4-(trifluoromethyl)pyridazin-3(2H)-one]	1220
4.46	O=C(C[C@H]1CCCCN1c1cc(C(F)(F)F)c(=O)[nH]n1)N1CCN(c2ncc(C(F)(F)F)cn2)CC1 [Example 34, (R)-6-(2-(2-oxo-2-(4-(5-(trifluoromethyl)pyrimidin-2-yl)piperazin-1-yl)ethyl)piperidin-1-yl)-4-(trifluoromethyl)pyridazin-3(2H)-one]	1690
0.179	CCN(CCCC(=O)N1CCN(c2ncc(C(F)(F)F)cn2)CC1)c1cc(C(F)(F)F)c(=O)[nH]n1 [Example 36, 6-(ethyl(4-oxo-4-(4-(5-(trifluoromethyl)pyrimidin-2-yl)piperazin-1-yl)butyl)amino)-4-(trifluoromethyl)pyridazin-3(2H)-one]	51.6
0.28	CCCN(CCCC(=O)N1CCN(c2ncc(C(F)(F)F)cn2)CC1)c1cc(C(F)(F)F)c(=O)[nH]n1 [Example 37, 6-((4-oxo-4-(4-(5-(trifluoromethyl)pyrimidin-2-yl)piperazin-1-yl)butyl)(propyl)amino)-4-(trifluoromethyl)pyridazin-3(2H)-one]	134
2.71	O=C(N1CCN(c2ncc(C(F)(F)F)cn2)CC1)N1CCC[C@@H](Nc2cc(C(F)(F)F)c(=O)[nH]n2)C1 [Example 38, (R)-4-(trifluoromethyl)-6-((1-(4-(5-(trifluoromethyl)pyrimidin-2-yl)piperazine-1-carbonyl)piperidin-3-yl)amino)pyridazin-3(2H)-one]	1870
0.719	O=C(N1CCN(c2ncc(C(F)(F)F)cn2)CC1)N1CCC[C@H](Nc2cc(C(F)(F)F)c(=O)[nH]n2)C1 [Example 39, (S)-4-(trifluoromethyl)-6-((1-(4-(5-(trifluoromethyl)pyrimidin-2-yl)piperazine-1-carbonyl)piperidin-3-yl)amino)pyridazin-3(2H)-one]	1030
0.275	O=C(CC[C@@H](Nc1cc(C(F)(F)F)c(=O)[nH]n1)C(F)F)N1CCN(c2ncc(C(F)(F)F)cn2)CC1 [Example 40, (R)-6-((1,1-difluoro-5-oxo-5-(4-(5-(trifluoromethyl)pyrimidin-2-yl)piperazin-1-yl)pentan-2-yl)amino)-4-(trifluoromethyl)pyridazin-3(2H)-one]	63
0.598	O=C(CC[C@@H]1COCCN1c1cc(C(F)(F)F)c(=O)[nH]n1)N1CCN(c2ncc(C(F)(F)F)cn2)CC1 [Example 42, (R)-6-(3-(3-oxo-3-(4-(5-(trifluoromethyl)pyrimidin-2-yl)piperazin-1-yl)propyl)morpholino)-4-(trifluoromethyl)pyridazin-3(2H)-one]	901
20.1	O=C([C@@H]1CN(c2cc(C(F)(F)F)c(=O)[nH]n2)CCO1)N1CCN(c2ncc(C(F)(F)F)cn2)CC1 [Example 43, (S)-4-(trifluoromethyl)-6-(2-(4-(5-(trifluoromethyl)pyrimidin-2-yl)piperazine-1-carbonyl)morpholino)pyridazin-3(2H)-one]	≥ 10000
0.151	O=C(CCCN(c1ccccc1)c1cc(C(F)(F)F)c(=O)[nH]n1)N1CCN(c2ncc(C(F)(F)F)cn2)CC1 [Example 44, 6-((4-oxo-4-(4-(5-(trifluoromethyl)pyrimidin-2-yl)piperazin-1-yl)butyl)(phenyl)amino)-4-(trifluoromethyl)pyridazin-3(2H)-one]	74.1
